Patent publication US6730667B2, “Iontophoresis disc pain blocker” (priority 2001, dated 2004)

Test system: overactive nerve fibers
Experiment: Iontophoretic delivery, practical patient experience
Format: in vivo, human
Details: ketamine at 2 to 4% or higher, clonidine at 0.2 to 0.4%, unbuffered; positive polarity
Description: Once the desired nerve or nerves are identified, a preselected composition of pharmaceuticals 14 is prepared for an administration step 16. Administration may be topical, by methods including gel 18 or spray 20. Iontophoresis is a preferred method. The composition is applied to a patch 22 for iontophoretic administration. Suitable patch structures include both single and multi-layered gel matrix discs. For example, a patch may be arranged with one or more layers of pH buffered electrolytes between drug layers. Ionotphoresis 24 delivers the drugs by application of tiny unipolar or switchable bipolar micro amperage current to the gel disc over the next 24 to 36 plus hours, producing blockade to the excessive nerve firing.
These are ketamine, which is an NMDA receptor blocker, at 2 to 4% or higher, and clonidine, which is an […], at 0.2 to 0.4% concentration, unbuffered. Both have positive polarity, and are positive charged. Selection of positive polarity would push the drug along the pathway of least resistance, finding the involved overactive nerve fibers; and pain blockade would occur.

Row | SMILES | suitability for delivery by iontophoresis
1 | Clc1cccc(Cl)c1N=C1NCCN1 [clonidine] | work well
2 | CNC1(c2ccccc2Cl)CCCCC1=O (centres unmarked) [ketamine] | work well
